Laboratory results as given in patent US20080132536A1, “PYRAZOLO [3,4-B] PYRIDINE COMPOUNDS, AND THEIR USE AS PDE4 INHIBITORS” (Glaxo Group Limited, priority 2003, published 2008).

Tests used:
[1] = Description: Micronisation usually involves subjecting the compound/salt to collisional and/or abrasional forces in a fast-flowing circular or spiral/vortex-shaped airstream often including a cyclone component.
In particle size measurements, D90, D50 and D10 respectively mean that 90%, 50% and 10% of the material is less than the micron size specified. D50 is the median particle size. DV90, DV50 and […] respectively mean that 90%, 50% and 10% by volume of the material is less than the micron size specified. DM90, DM50 and DM10 respectively mean that 90%, 50% and 10% by weight of the material is less than the micron size specified.
Laser diffraction measurement of particle size can use a dry method (wherein a suspension of the compound/salt in an airflow crosses the laser beam) or a wet method [wherein a suspension of the compound/salt in a liquid dispersing medium, such as isooctane or (e.g. if compound is soluble in isooctane) 0.1% Tween 80 in water, crosses the laser beam]. With laser diffraction, particle size is preferably calculated using the Fraunhofer calculation; and/or preferably a Malvern Mastersizer or Sympatec apparatus is used for measurement.
• Purpose: To micronise Example 73, 75, 98, 283, 304, 306, 307, 308, 309, 310, 311, 312, 313, 314 or 314A or 333 (described hereinafter), usually in an amount of approximately 600-1000 mg thereof, using a Jetpharma MC 1 micronizer. • The parent (unmicronised) and micronised materials are analyzed for particle size by laser diffraction and crystallinity by PXRD.
The micronizer is assembled. The narrow head of the venturi inlet is positioned below and slightly forward of the material inlet port and is measured with a micro-caliper to make sure that it is inserted correctly. The ring (R) and venturi (V) pressures are adjusted according to the values specified in the experimental design (refer to experimental section below) by adjusting the valves on the pressure gauges on the micronizer. The setup is checked for leakage by observing if there is any fluctuation in the reading of the pressure gauges.
Balance performance is checked with calibration weights. Specified amount of the parent material (see e.g. section on experimental run Procedure 1 for Example 307) is fed into the input container of the micronizer using a spatula. The input container plus material is weighed. The equipment pressure is monitored during the micronization process.
Upon completion of the micronising run, the nitrogen supply is shut off and the micronised material is allowed to settle into the micronizer container. The micronised powder in the micronizer container (collection vessel) and the cyclone (above the recovery vessel) are collected together into a pre-weighed and labelled collection vial. The weight of the micronised material is recorded. The input container is re-weighed in order to calculate the amount of input material by difference. The micronizer is disassembled and residual PDE4 compound on the micronizer inner surface is rinsed with 70/30 isopropyl alcohol/water and collected into a flask. The micronizer is then thoroughly cleaned in a Lancer washing machine and dried before subsequent runs are performed.

conscious ferret = assay: In Vivo Assay 4: therapeutic index of orally-administered PDE4 inhibitors in the conscious ferret (LPS-induced pulmonary neutrophilia and emesis); design: species or system ferret (Mustela Pulorius Furo); details: p.o.
Method: PDE4 inhibitors are prepared for oral (p.o.) administration by dissolving in a fixed volume (ca. 1 ml) of acetone and then adding cremophor to ca. 20% of the final volume. Acetone is evaporated by directing a flow of nitrogen gas onto the solution. Once the acetone is removed, the solution is made up to final volume with distilled water. LPS is dissolved in phosphate buffered saline.
Male ferrets (Mustela Pulorius Furo, weighing 1-2 kg) are transported and allowed to acclimatise for not less than 7 days. The diet comprises SDS diet C pelleted food given ad lib with Whiskers™ cat food given 3 times per week. The animals are supplied with pasteurised animal grade drinking water changed daily.
PDE4 inhibitors are administered orally (p.o.), using a dose volume of ca. 1 ml/kg. […] The animals are constantly observed and any emetic episodes (retching and vomiting) or behavioural changes are recorded. […]
About thirty minutes after oral dosing with compound or vehicle control, the ferrets are placed into sealed perspex containers and exposed to an aerosol of LPS (ca. 30 μg/ml=ca. 30 ug/ml) for ca. 10 minutes. […] All emetic episodes and behavioural changes are recorded.
About six hours after LPS exposure the animals are killed by overdose of sodium pentobarbitone administered intraperitoneally. […] From this, the total number of neutrophils in the BAL sample is determined. […]

[2] = micronised, V = 5 to 7 bar, R = 3 to 4 bar

SMILES	Particle Size Data D10 (micronised material) [1, 2]	Particle Size Data D50 (micronised material) [1, 2]	Particle Size Data D90 (micronised material) [1, 2]	Particle Size Data D10 (unmicronised material) ([1]; unmicronised)	Particle Size Data D50 (unmicronised material) ([1]; unmicronised)	Particle Size Data D90 (unmicronised material) ([1]; unmicronised)	D20 for emesis (dose giving 20% incidence of emesis) (conscious ferret)	D50 for ferret neutrophilia (dose giving 50% inhibition of LPS-induced pulmonary neutrophilia) (conscious ferret)
CCC(NC(=O)c1cnc2c(cnn2CC)c1NC1CCOCC1)c1ccc(C)cc1C.Cl (single isomer, unassigned; enantiomer 2) [Example 307, N-[1-(2,4-dimethylphenyl)propyl]-1-ethyl-4-(tetrahydro-2H-pyran-4-ylamino)-1H-pyrazolo[3,4-b]pyridine-5-carboxamide (Enantiomer 2) hydrochloride]	D10 = 0.84 microns	D50 = 1.56 microns	D90 = 2.74 microns	D10 = 2.48 microns	D50 = 8.98 microns	D90 = 24.14 microns		
O=C(Nc1c(Cl)cncc1Cl)c1ccc(OC(F)F)c(OCC2CC2)c1 [roflumilast]							about 0.46 mg/kg	about 0.42 mg/kg
